Experimental data published in publication PMC10536189 (Microorganisms, 2023).
Read-outs that look alike come from different tables or passages of the source.

Tested on: M. tuberculosis
Type: cell-based, Mycobacterium tuberculosis (laboratory strain H37Rv)
Conditions: for Average % Faster than Control: negative = slower; for Time to Positivity (Days.Hours) Experiment 2a / Time to Positivity (Days.Hours) Experiment 2b: diluted inoculum; for Time to Positivity (Days.Hours) Experiment 2a: technical repeat 2a, TB control (no peptide) 15.01; for Time to Positivity (Days.Hours) Experiment 2b: technical repeat 2b, TB control (no peptide) 15.20; for Time to Positivity (Days.Hours) Experiment 1a / Time to Positivity (Days.Hours) Experiment 1b: less diluted inoculum; for Time to Positivity (Days.Hours) Experiment 1a: technical repeat 1a, TB control (no peptide) 7.02; for Time to Positivity (Days.Hours) Experiment 1b: technical repeat 1b, TB control (no peptide) 7.01
[1] = crude peptide 10 µg/mL, average of experiments 1 and 2
[2] = peptide 10 µg/mL, overall average of the averages of experiments 1a/1b and 2a/2b

| Substance | Time to Positivity (Day.Hours) Experiment 1 [Day.Hours] | Time to Positivity (Day.Hours) Experiment 2 [Day.Hours] | Average % Faster than Control [1] [%] | further results |
| --- | --- | --- | --- | --- |
| CM15/Bee venom: peptide from APD3, bee venom (KWKLFKKIGAVLKVL) | 10.19 | 8.01 | 10.0 | – |
| GFGMALKLLKKVL [Macropin 1/Wasp] | 10.12 | 8.07 | 10.0 | – |
| 66: peptide from the authors' library (RRARIVVIRVAR) [Peptide 66] | – | – | – | Time to Positivity (Days.Hours) Experiment 2a (peptide 10 µg/mL, MGIT): 17.06 Days.Hours; Time to Positivity (Days.Hours) Experiment 2b (peptide 10 µg/mL, MGIT): 17.16 Days.Hours; Time to Positivity (Days.Hours) Experiment 1a (peptide 10 µg/mL, MGIT): 6.05 Days.Hours; Time to Positivity (Days.Hours) Experiment 1b (peptide 10 µg/mL, MGIT): 6.16 Days.Hours; Average % Faster than Control [2]: −3.5% |
| 61: peptide from the authors' library (ILKWKTKWWKWFR) [Peptide 61] | – | – | – | Time to Positivity (Days.Hours) Experiment 2a (peptide 10 µg/mL, MGIT): 13.11 Days.Hours; Time to Positivity (Days.Hours) Experiment 2b (peptide 10 µg/mL, MGIT): 14.21 Days.Hours; Time to Positivity (Days.Hours) Experiment 1a (peptide 10 µg/mL, MGIT): 6.20 Days.Hours; Time to Positivity (Days.Hours) Experiment 1b (peptide 10 µg/mL, MGIT): 5.23 Days.Hours; Average % Faster than Control [2]: 10.4% |
| VNWKKILGKIIKVVK [Lasioglossin LL-III/Bee] | 9.18 | 8.08 | 13.1 | – |
| VRRFPWWWPFLRR [Tritrpticin/Pig] | 11.08 | 9.13 | −0.3 | – |
| 9: peptide from the authors' library; same sequence as P9/Designed (KRRWRIWLV) [Peptide 9] | – | – | – | Time to Positivity (Days.Hours) Experiment 2a (peptide 10 µg/mL, MGIT): 15.08 Days.Hours; Time to Positivity (Days.Hours) Experiment 2b (peptide 10 µg/mL, MGIT): 14.21 Days.Hours; Time to Positivity (Days.Hours) Experiment 1a (peptide 10 µg/mL, MGIT): 6.07 Days.Hours; Time to Positivity (Days.Hours) Experiment 1b (peptide 10 µg/mL, MGIT): 6.04 Days.Hours; Average % Faster than Control [2]: 5.8% |
| VFHLLGKIIHHVGNFV [Clavanin C/Sea squirt, naturally occurring peptide, APD3, sea squirt] | – | – | 7.2 | Time to Positivity (Day.Hours) Experiment 1 (crude peptide 10 µg/mL, MGIT, independent experiment 1, Control (TB only) 11.10, inoculum emulsified through G25 needle): 10.21 Day.Hours; Time to Positivity (Day.Hours) Experiment 2 (crude peptide 10 µg/mL, MGIT, independent experiment 2, Control (TB only) 9.10, inoculum emulsified through G25 needle): 8.12 Day.Hours |
| 20: peptide from the authors' library (KWKWWWRKI) [Peptide 20] | – | – | – | Time to Positivity (Days.Hours) Experiment 2a (peptide 10 µg/mL, MGIT): 14.01 Days.Hours; Time to Positivity (Days.Hours) Experiment 2b (peptide 10 µg/mL, MGIT): 14.16 Days.Hours; Time to Positivity (Days.Hours) Experiment 1a (peptide 10 µg/mL, MGIT): 6.11 Days.Hours; Time to Positivity (Days.Hours) Experiment 1b (peptide 10 µg/mL, MGIT): 6.00 Days.Hours; Average % Faster than Control [2]: 8.3% |
| KKLLGKLLKKLGKLLL [GLK-19/Designed *] | 10.17 | 8.04 | 9.7 | – |
| GAILPLALGALKNLIK [Hylin a1/Frog] | 11.14 | 8.02 | 6.3 | – |
| FLPLFASLIGKLL [Temporin-1Cb/Frog] | 11.08 | 8.06 | 6.6 | – |
| ILGAILPLVSGLLSNKL [Alyteserin-2b/Toad] | 11.18 | 8.02 | 5.6 | – |
| FFPYAALKWLRKLLKK [P-04/Tunicate] | 11.02 | 8.08 | 7.2 | – |
| 12: peptide from the authors' library (RRRIKIRWY) [Peptide 12] | – | – | – | Effect on TTP of MTB in words (peptide 10 µg/mL, MGIT): strong hormetic response; Time to Positivity (Days.Hours) Experiment 2a (peptide 10 µg/mL, MGIT): 14.08 Days.Hours; Time to Positivity (Days.Hours) Experiment 2b (peptide 10 µg/mL, MGIT): 14.22 Days.Hours; Time to Positivity (Days.Hours) Experiment 1a (peptide 10 µg/mL, MGIT): 6.14 Days.Hours; Time to Positivity (Days.Hours) Experiment 1b (peptide 10 µg/mL, MGIT): 5.20 Days.Hours; Average % Faster than Control [2]: 10.2% |
| FGKILGVGKKVLCGLS [Odorranain-H1/Frog *] | 10.19 | 8.03 | 9.6 | – |

| Substance | Time to Positivity (Day.Hours) Experiment 1 [Day.Hours] | Time to Positivity (Day.Hours) Experiment 2 [Day.Hours] | Average % Faster than Control [1] [%] | further results |
| --- | --- | --- | --- | --- |
| FLGALAKIISGIF [Temporin-1TSa/Frog] | 11.00 | 8.02 | 8.9 | – |
| KRRWRIWLV [P9/Designed] | 11.10 | 8.14 | 4.4 | – |
| RWCVYAYVRVRGVLVR [Arenicin 1/Annelid worm *] | 10.15 | 8.02 | 10.5 | – |
| IsCT2/Scorpion: naturally occurring peptide, APD3, scorpion (IFGAIWNGIKSLF) | 10.23 | 8.21 | 4.9 | – |
| IRLHRLYTWKATIYTR [PP13/Wasp *] | 10.17 | 8.02 | 10.2 | – |
| FLSLIPSLVGGSISAFK [TsAP-1/Scorpion] | 11.07 | 8.05 | 7.0 | – |
| 65: peptide from the authors' library (RGARIVVIRVAR) [Peptide 65] | – | – | – | Time to Positivity (Days.Hours) Experiment 2a (peptide 10 µg/mL, MGIT): 16.11 Days.Hours; Time to Positivity (Days.Hours) Experiment 2b (peptide 10 µg/mL, MGIT): 16.01 Days.Hours; Time to Positivity (Days.Hours) Experiment 1a (peptide 10 µg/mL, MGIT): 6.16 Days.Hours; Time to Positivity (Days.Hours) Experiment 1b (peptide 10 µg/mL, MGIT): 6.03 Days.Hours; Average % Faster than Control [2]: 0.8% |
| LVPLFLSKLICFITKKC [Brevinin 1Tb/Frog] | 11.10 | 8.15 | 4.2 | – |
| FLPLIAGLIGKLF [Peptide B9/Frog] | 10.19 | 8.01 | 10.0 | – |
| LSFLPKVIGVIGHLIH [Fallaxidin/Frog *] | 11.18 | 8.13 | 3.2 | – |
| 77: peptide from the authors' library (VRLRIRVAVIRA) [Peptide 77] | – | – | – | Time to Positivity (Days.Hours) Experiment 2a (peptide 10 µg/mL, MGIT): 14.22 Days.Hours; Time to Positivity (Days.Hours) Experiment 2b (peptide 10 µg/mL, MGIT): 15.03 Days.Hours; Time to Positivity (Days.Hours) Experiment 1a (peptide 10 µg/mL, MGIT): 6.14 Days.Hours; Time to Positivity (Days.Hours) Experiment 1b (peptide 10 µg/mL, MGIT): 6.04 Days.Hours; Average % Faster than Control [2]: 5.0% |
| YQEPVLGPVRGPFPIIV [Casecidin 17/Cow] | 11.12 | 8.14 | 4.1 | – |
| FIITGLVRGLTKLF [Temporin-LTb/Frog] | 11.07 | 8.06 | 6.7 | – |
| 5: peptide from the authors' library; same sequence as P8/Designed * (FFIYVWRRR) [Peptide 5] | – | – | – | Time to Positivity (Days.Hours) Experiment 2a (peptide 10 µg/mL, MGIT): 14.06 Days.Hours; Time to Positivity (Days.Hours) Experiment 2b (peptide 10 µg/mL, MGIT): 14.16 Days.Hours; Time to Positivity (Days.Hours) Experiment 1a (peptide 10 µg/mL, MGIT): 5.21 Days.Hours; Time to Positivity (Days.Hours) Experiment 1b (peptide 10 µg/mL, MGIT): 6.08 Days.Hours; Average % Faster than Control [2]: 8.8% |
| 68: peptide from the authors' library (RLRRIVVIRVAR) [Peptide 68] | – | – | – | Time to Positivity (Days.Hours) Experiment 2a (peptide 10 µg/mL, MGIT): 15.00 Days.Hours; Time to Positivity (Days.Hours) Experiment 2b (peptide 10 µg/mL, MGIT): 15.23 Days.Hours; Time to Positivity (Days.Hours) Experiment 1a (peptide 10 µg/mL, MGIT): 6.09 Days.Hours; Time to Positivity (Days.Hours) Experiment 1b (peptide 10 µg/mL, MGIT): 6.17 Days.Hours; Average % Faster than Control [2]: 2.3% |
| WGKLFKLGLHGIGLLH [NRC-15/Fish *] | 10.21 | 8.07 | 8.3 | – |
